Source: PubChem BioAssay AID1963827 (Molecular Pharmacology Branch, DTP, NCI, 2024)

Test system: 994946-033-R-J1-PDC complex spheroid viability
Assay: Anticancer human tumor 994946-033-R-J1-PDC patient-derived melanoma cell line growth inhibition [POLQ]
Conditions: for IC50: curve of first compound; for viability, T/C: stronger effect = lower value
Method in brief: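 Complex spheroid viability model combining PDC tumour cells with endothelial (HUVEC) and MSC stromal cells. Novobiocin, ART-558 or RP6685 were tested singly and in combination with standard and investigational anticancer drugs. Each was titrated in half-log steps from near clinical Cmax, or from 10 microM where Cmax was unknown.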

[1] = second compound 0.0316 µM, first compound 0.0316 µM
[2] = second compound 0.0316 µM, first compound 0.1 µM
[3] = second compound 0.0316 µM, first compound 0.316 µM
[4] = second compound 0.0316 µM, first compound 1 µM
[5] = second compound 0.1 µM, first compound 0.0316 µM
[6] = second compound 0.1 µM, first compound 0.1 µM
[7] = second compound 0.1 µM, first compound 0.316 µM
[8] = second compound 0.1 µM, first compound 1 µM
[9] = second compound 0.316 µM, first compound 0.0316 µM
[10] = second compound 0.316 µM, first compound 0.1 µM
[11] = second compound 0.316 µM, first compound 0.316 µM
[12] = second compound 0.316 µM, first compound 1 µM
[13] = second compound 1 µM, first compound 0.0316 µM
[14] = second compound 1 µM, first compound 0.1 µM
[15] = second compound 1 µM, first compound 0.316 µM
[16] = second compound 1 µM, first compound 1 µM
[17] = second compound 3.16 µM, first compound 0.0316 µM
[18] = second compound 3.16 µM, first compound 0.1 µM
[19] = second compound 3.16 µM, first compound 0.316 µM
[20] = second compound 3.16 µM, first compound 1 µM
[21] = second compound 10 µM, first compound 0.0316 µM
[22] = second compound 10 µM, first compound 0.1 µM
[23] = second compound 10 µM, first compound 0.316 µM
[24] = second compound 10 µM, first compound 1 µM
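Note: spheroids exposed to drugs for 7 days.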
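Throughout, for viability, T/C: 100% = DMSO vehicle treated spheroids.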

Structure (SMILES): CC(=O)O[C@H]1C(=O)[C@@]2(C)[C@H]([C@H](OC(=O)c3ccccc3)[C@]3(O)C[C@H](OC(=O)[C@H](O)[C@@H](NC(=O)c4ccccc4)c4ccccc4)C(C)=C1C3(C)C)[C@]1(OC(C)=O)CO[C@@H]1C[C@@H]2O + Nc1ccc(C#CCN(C(=O)Cc2ncc(C(F)(F)F)cc2C(F)(F)F)c2ccc(F)cc2)nn1
- IC50 (second compound 0.0316 µM): < 9.49 nM
- IC50 (second compound 0.1 µM): < 9.49 nM
- IC50 (second compound 0.316 µM): < 9.49 nM
- IC50 (second compound 1 µM): < 9.49 nM
- IC50 (second compound 3.16 µM): < 9.49 nM
- IC50 (second compound 10 µM): < 9.49 nM
- viability, T/C (second compound 0.0316 µM, first compound 0.00949 µM): 20.4%
- viability, T/C (second compound 0.0316 µM, first compound 0.03 µM): 18.5%
- viability, T/C (second compound 0.0316 µM, first compound 0.0949 µM): 14.8%
- viability, T/C (second compound 0.0316 µM, first compound 0.3 µM): 22%
- viability, T/C (second compound 0.0316 µM, first compound 0.949 µM): 13.5%
- viability, T/C (second compound 0.0316 µM, first compound 3 µM): 12%
- viability, T/C (second compound 0.1 µM, first compound 0.00949 µM): 25.9%
- viability, T/C (second compound 0.1 µM, first compound 0.03 µM): 23.6%
- viability, T/C (second compound 0.1 µM, first compound 0.0949 µM): 19.4%
- viability, T/C (second compound 0.1 µM, first compound 0.3 µM): 15.9%
- viability, T/C (second compound 0.1 µM, first compound 0.949 µM): 9.63%
- viability, T/C (second compound 0.1 µM, first compound 3 µM): 13.3%
- viability, T/C (second compound 0.316 µM, first compound 0.00949 µM): 22.3%
- viability, T/C (second compound 0.316 µM, first compound 0.03 µM): 20.8%
- viability, T/C (second compound 0.316 µM, first compound 0.0949 µM): 20.4%
- viability, T/C (second compound 0.316 µM, first compound 0.3 µM): 15.9%
- viability, T/C (second compound 0.316 µM, first compound 0.949 µM): 13.8%
- viability, T/C (second compound 0.316 µM, first compound 3 µM): 13.9%
- viability, T/C (second compound 1 µM, first compound 0.00949 µM): 29.7%
- viability, T/C (second compound 1 µM, first compound 0.03 µM): 24.9%
- viability, T/C (second compound 1 µM, first compound 0.0949 µM): 20%
- viability, T/C (second compound 1 µM, first compound 0.3 µM): 20%
- viability, T/C (second compound 1 µM, first compound 0.949 µM): 15.3%
- viability, T/C (second compound 1 µM, first compound 3 µM): 13.2%
- viability, T/C (second compound 3.16 µM, first compound 0.00949 µM): 29.2%
- viability, T/C (second compound 3.16 µM, first compound 0.03 µM): 24.2%
- viability, T/C (second compound 3.16 µM, first compound 0.0949 µM): 18.4%
- viability, T/C (second compound 3.16 µM, first compound 0.3 µM): 15.3%
- viability, T/C (second compound 3.16 µM, first compound 0.949 µM): 14.1%
- viability, T/C (second compound 3.16 µM, first compound 3 µM): 12.1%
- viability, T/C (second compound 10 µM, first compound 0.00949 µM): 24.8%
- viability, T/C (second compound 10 µM, first compound 0.03 µM): 24%
- viability, T/C (second compound 10 µM, first compound 0.0949 µM): 25%
- viability, T/C (second compound 10 µM, first compound 0.3 µM): 18%
- viability, T/C (second compound 10 µM, first compound 0.949 µM): 18.9%
- viability, T/C (second compound 10 µM, first compound 3 µM): 12.2%

Structure (SMILES): CCc1c2c(nc3ccc(O)cc13)-c1cc3c(c(=O)n1C2)COC(=O)[C@]3(O)CC + Nc1ccc(C#CCN(C(=O)Cc2ncc(C(F)(F)F)cc2C(F)(F)F)c2ccc(F)cc2)nn1
- IC50 (second compound 0.0316 µM): < 3.16 nM
- IC50 (second compound 0.1 µM): < 3.16 nM
- IC50 (second compound 0.316 µM): < 3.16 nM
- IC50 (second compound 1 µM): < 3.16 nM
- IC50 (second compound 3.16 µM): < 3.16 nM
- IC50 (second compound 10 µM): < 3.16 nM
- viability, T/C (second compound 0.0316 µM, first compound 0.00316 µM): 27%
- viability, T/C (second compound 0.0316 µM, first compound 0.01 µM): 13.4%
- viability, T/C [1]: 8.88%
- viability, T/C [2]: 5.83%
- viability, T/C [3]: 4.85%
- viability, T/C [4]: 1.91%
- viability, T/C (second compound 0.1 µM, first compound 0.00316 µM): 23.6%
- viability, T/C (second compound 0.1 µM, first compound 0.01 µM): 11.1%
- viability, T/C [5]: 7.44%
- viability, T/C [6]: 6.7%
- viability, T/C [7]: 7.41%
- viability, T/C [8]: 2.23%
- viability, T/C (second compound 0.316 µM, first compound 0.00316 µM): 29.8%
- viability, T/C (second compound 0.316 µM, first compound 0.01 µM): 10.9%
- viability, T/C [9]: 8.12%
- viability, T/C [10]: 7.25%
- viability, T/C [11]: 6.69%
- viability, T/C [12]: 2.59%
- viability, T/C (second compound 1 µM, first compound 0.00316 µM): 20.8%
- viability, T/C (second compound 1 µM, first compound 0.01 µM): 12.1%
- viability, T/C [13]: 6.5%
- viability, T/C [14]: 9.5%
- viability, T/C [15]: 5.03%
- viability, T/C [16]: 2.07%
- viability, T/C (second compound 3.16 µM, first compound 0.00316 µM): 26.3%
- viability, T/C (second compound 3.16 µM, first compound 0.01 µM): 16.2%
- viability, T/C [17]: 8.04%
- viability, T/C [18]: 6.61%
- viability, T/C [19]: 6.79%
- viability, T/C [20]: 1.91%
- viability, T/C (second compound 10 µM, first compound 0.00316 µM): 28%
- viability, T/C (second compound 10 µM, first compound 0.01 µM): 14.1%
- viability, T/C [21]: 5.91%
- viability, T/C [22]: 7.41%
- viability, T/C [23]: 8.18%
- viability, T/C [24]: 2.64%

Structure (SMILES): Nc1ccn(C2OC(CO)C(O)C2(F)F)c(=O)n1 (stereo unspecified) + Nc1ccc(C#CCN(C(=O)Cc2ncc(C(F)(F)F)cc2C(F)(F)F)c2ccc(F)cc2)nn1
- IC50 (second compound 0.0316 µM): < 31.6 nM
- IC50 (second compound 0.1 µM): < 31.6 nM
- IC50 (second compound 0.316 µM): < 31.6 nM
- IC50 (second compound 1 µM): < 31.6 nM
- IC50 (second compound 3.16 µM): 35.5 nM
- IC50 (second compound 10 µM): 120 nM
- viability, T/C [1]: 19.8%
- viability, T/C [2]: 9.8%
- viability, T/C [3]: 13.9%
- viability, T/C [4]: 6.8%
- viability, T/C (second compound 0.0316 µM, first compound 3.16 µM): 9.12%
- viability, T/C (second compound 0.0316 µM, first compound 10 µM): 4.73%
- viability, T/C [5]: 13.4%
- viability, T/C [6]: 6.85%
- viability, T/C [7]: 7.22%
- viability, T/C [8]: 8.61%
- viability, T/C (second compound 0.1 µM, first compound 3.16 µM): 6.71%
- viability, T/C (second compound 0.1 µM, first compound 10 µM): 2.46%
- viability, T/C [9]: 26.9%
- viability, T/C [10]: 10.2%
- viability, T/C [11]: 6.41%
- viability, T/C [12]: 6.86%
- viability, T/C (second compound 0.316 µM, first compound 3.16 µM): 5.84%
- viability, T/C (second compound 0.316 µM, first compound 10 µM): 3.65%
- viability, T/C [13]: 49.5%
- viability, T/C [14]: 11.8%
- viability, T/C [15]: 7.84%
- viability, T/C [16]: 6.62%
- viability, T/C (second compound 1 µM, first compound 3.16 µM): 5.64%
- viability, T/C (second compound 1 µM, first compound 10 µM): 2.7%
- viability, T/C [17]: 53.2%
- viability, T/C [18]: 22.4%
- viability, T/C [19]: 8.85%
- viability, T/C [20]: 9.68%
- viability, T/C (second compound 3.16 µM, first compound 3.16 µM): 8.92%
- viability, T/C (second compound 3.16 µM, first compound 10 µM): 3.34%
- viability, T/C [21]: 75.5%
- viability, T/C [22]: 56.2%
- viability, T/C [23]: 17.5%
- viability, T/C [24]: 7.83%
- viability, T/C (second compound 10 µM, first compound 3.16 µM): 11.2%
- viability, T/C (second compound 10 µM, first compound 10 µM): 6.31%
